Measured values published in patent publication US20080021026A1, “BENZOTHIOPHENE INHIBITORS OF RHO KINASE” (priority 2006, published 2008).

Columns and labels:
[1] = biological target: T1, recombinant N-terminal GST-tagged human Rho kinase 1 (ROCK1, amino acids 1-535) (Homo sapiens, UniProt Q13464); experiment: In vitro Rho kinase assay (luciferase-based ATP consumption), ROCK1; format: biochemical; conditions: recombinant GST-tagged human ROCK1, luciferase-based ATP consumption; read-out: ROCK1 IC50
T1 construct: ROCK1, amino acids 1-535; purchased Invitrogen Inc. PV-3691
Description: In Vitro Rho Kinase Assay
Rho kinase biochemical assays described below depend on firefly luciferase-based, indirect measurement of total ATP consumption by the kinase following incubation with substrate and ATP. 25 μl of Rho kinase assay buffer (20 mM Tris-HCL [pH 7.5], 1 mM MgCl2, 0.4 mM CaCl2, 0.15 mM EGTA, 0.1 mg/ml bovine serum albumin) containing 0.82 μg/ml of recombinant N-terminal GST-tagged human Rho kinase 1 (ROCK1, amino acids 1-535, Invitrogen Inc., cat. #PV-3691) or recombinant N-terminal GST-tagged human Rho kinase 2 (ROCK2, amino acids 1-552, Invitrogen Inc., cat #PV3759), 100 μg/ml S6 peptide substrate (related to amino acids 218-249 of the human 40S ribosomal protein S6, and suitable for ROCK1 or ROCK2, e.g. Upstate/Millipore Inc., cat #12-420), and 3 µM ATP are dispensed to wells of a 384 multi-well opaque plate. The plate is centrifuged for 30 seconds at approximately 200×g. 240 nl of test compound in DMSO is dispensed to each well by passive pin transfer. The lag phase of this in vitro kinase reaction permits addition of compounds soon after the reaction initiates. The reaction is allowed to incubate at 30° C. for 2 hours. The assay plates are sealed and maintained in a humidified environment. After 2 hours, 25 μl of easylite protein kinase assay reagent (Perkin-Elmer, Inc.) is dispensed. After an additional 10 minute incubation at room temperature (about 22° C.), luminescence activity is measured on a Molecular Devices Analyst multi-mode plate reader or other suitable plate reader. Kinase inhibition results in less ATP consumption, and therefore increased luminescence signal. Negative control activity is measured with DMSO lacking any test compound. The positive control is 2-methyl-1-(4-methylisoquinolin-5-ylsulfonyl)perhydro-1,4-diazepine hydrochloride (aka H-1152P, HCl salt). Efficacy is measured as a percentage of positive control activity. […] The designation NT means the cited example was not tested.

[2] = biological target: T2, recombinant N-terminal GST-tagged human Rho kinase 2 (ROCK2, amino acids 1-552) (Homo sapiens, UniProt O75116); experiment: In vitro Rho kinase assay (luciferase-based ATP consumption), ROCK2; format: biochemical; conditions: recombinant GST-tagged human ROCK2, luciferase-based ATP consumption; read-out: ROCK2 IC50
T2 construct: ROCK2, amino acids 1-552; purchased Invitrogen Inc. PV3759
How it was run: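 Luciferase-based luminescence of leftover ATP after 2 h at 30 °C, where inhibition raises signal, reports activity of GST-tagged ROCK2 (aa 1-552) at 0.82 μg/ml. Conditions: S6 peptide 100 μg/ml, […], pH 7.5 Tris buffer. Results given as percent of H-1152P control activity.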

T2 sequence (O75116 1-552): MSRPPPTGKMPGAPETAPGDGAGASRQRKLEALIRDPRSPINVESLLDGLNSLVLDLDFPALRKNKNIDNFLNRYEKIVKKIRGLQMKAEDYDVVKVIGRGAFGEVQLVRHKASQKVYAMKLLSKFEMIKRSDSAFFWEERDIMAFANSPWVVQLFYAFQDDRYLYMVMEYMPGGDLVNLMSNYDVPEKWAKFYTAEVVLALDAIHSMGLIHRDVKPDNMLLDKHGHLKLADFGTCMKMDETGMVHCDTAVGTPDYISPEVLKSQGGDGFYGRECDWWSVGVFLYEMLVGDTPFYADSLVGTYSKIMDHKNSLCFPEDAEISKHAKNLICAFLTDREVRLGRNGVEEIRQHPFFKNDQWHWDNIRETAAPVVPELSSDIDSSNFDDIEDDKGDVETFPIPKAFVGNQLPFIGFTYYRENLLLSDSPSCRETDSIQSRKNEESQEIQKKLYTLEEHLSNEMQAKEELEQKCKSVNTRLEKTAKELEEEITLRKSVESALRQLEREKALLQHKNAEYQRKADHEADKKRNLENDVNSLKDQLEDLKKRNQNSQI
T1 sequence (Q13464 1-535): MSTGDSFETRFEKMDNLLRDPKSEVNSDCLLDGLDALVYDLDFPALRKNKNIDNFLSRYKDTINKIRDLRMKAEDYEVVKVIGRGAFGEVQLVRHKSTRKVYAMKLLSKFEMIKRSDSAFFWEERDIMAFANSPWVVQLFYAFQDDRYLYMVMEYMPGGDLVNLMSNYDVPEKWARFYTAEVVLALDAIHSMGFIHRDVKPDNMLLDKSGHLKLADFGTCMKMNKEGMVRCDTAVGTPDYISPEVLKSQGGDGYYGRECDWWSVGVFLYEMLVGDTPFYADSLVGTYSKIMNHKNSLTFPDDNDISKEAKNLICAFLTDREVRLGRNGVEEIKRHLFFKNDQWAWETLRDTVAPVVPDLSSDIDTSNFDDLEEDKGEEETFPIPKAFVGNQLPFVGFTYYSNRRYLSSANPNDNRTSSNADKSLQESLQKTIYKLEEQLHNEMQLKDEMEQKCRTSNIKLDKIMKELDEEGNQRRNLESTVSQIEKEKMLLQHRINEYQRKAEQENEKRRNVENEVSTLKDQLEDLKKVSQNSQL

IC50 [1] | IC50 [2] | Compound
< 5 µM | > 5 µM | Cc1c(-c2ccnc(N)n2)sc2ccc(C(=O)O)cc12 [Example 19, 2-(2-Aminopyrimidin-4-yl)-3-methylbenzo[b]thiophene-5-carboxylic acid]
< 5 µM | < 5 µM | CC(=O)Nc1cccc(NC(=O)c2ccc3sc(-c4ccnc(N)n4)c(C)c3c2)c1 [Example 20, N-(3-Acetamidophenyl)-2-(2-aminopyrimidin-4-yl)-3-methylbenzo[b]thiophene-5-carboxamide]
< 5 µM | < 5 µM | Cc1c(-c2ccnc(N)n2)sc2ccc(C(=O)Nc3ccc(OCCN4CCOCC4)cc3)cc12 [Example 21, 2-(2-Aminopyrimidin-4-yl)-3-methyl-N-(4-(2-morpholinoethoxy)phenyl)benzo[b]thiophene-5-carboxamide]
< 5 µM | < 5 µM | Cc1c(-c2ccnc(N)n2)sc2ccc(C(=O)N3CCC(N)C3)cc12 (stereo not drawn) [Example 23, (2-(2-Aminopyrimidin-4-yl)-3-methylbenzo[b]thiophen-5-yl)(3-aminopyrrolidin-1-yl)methanone]
> 5 µM | > 5 µM | COc1ccc(Cc2ccc3sc(-c4ccnc(N)n4)c(C)c3c2)cc1 [Example 25, 4-(5-(4-Methoxybenzyl)-3-methylbenzo[b]thiophen-2-yl)pyrimidin-2-amine]
< 5 µM | < 5 µM | CC(=O)Oc1cccc(Cc2ccc3sc(-c4ccnc(N)n4)c(C)c3c2)c1 [Example 28, 3-((2-(2-Aminopyrimidin-4-yl)-3-methylbenzo[b]thiophen-5-yl)methyl)phenyl acetate]
< 5 µM | < 5 µM | Cc1c(-c2ccnc(N)n2)sc2ccc(Cc3cccc(OCCN4CCOCC4)c3)cc12 [Example 29, 4-(3-Methyl-5-(3-(2-morpholinoethoxy)benzyl)benzo[b]thiophen-2-yl)pyrimidin-2-amine]
< 5 µM | < 5 µM | Cc1c(-c2ccnc(N)n2)sc2ccc(Cc3cccc(OCCCN)c3)cc12 [Example 31, 4-(5-(3-(3-Aminopropoxy)benzyl)-3-methylbenzo[b]thiophen-2-yl)pyrimidin-2-amine]
< 5 µM | < 5 µM | Cc1c(-c2ccnc(N)n2)sc2ccc(CNC(=O)Cc3ccccc3O)cc12 [Example 35, N-((2-(2-Aminopyrimidin-4-yl)-3-methylbenzo[b]thiophen-5-yl)methyl)-2-(2-hydroxyphenyl)acetamide]
< 5 µM | < 5 µM | COc1ccc(OC)c(C(=O)NCc2ccc3sc(-c4ccnc(N)n4)c(C)c3c2)c1 [Example 36, N-((2-(2-Aminopyrimidin-4-yl)-3-methylbenzo[b]thiophen-5-yl)methyl)-2,5-dimethoxybenzamide]
< 5 µM | < 5 µM | Cc1c(-c2ccnc(N)n2)sc2ccc(Cc3cccc(C(=O)O)c3)cc12 [Example 41, 3-((2-(2-Aminopyrimidin-4-yl)-3-methylbenzo[b]thiophen-5-yl)methyl)benzoic acid]
> 5 µM | < 5 µM | COC(=O)c1cccc(Cc2ccc3sc(-c4ccnc(N)n4)c(C)c3c2)c1 [Example 42, Methyl 3-((2-(2-aminopyrimidin-4-yl)-3-methylbenzo[b]thiophen-5-yl)methyl)benzoate]
< 5 µM | < 5 µM | Cc1c(-c2ccnc(N)n2)sc2ccc(Cc3cccc(C(=O)OC(C)C)c3)cc12 [Example 43, Isopropyl 3-((2-(2-aminopyrimidin-4-yl)-3-methylbenzo[b]thiophen-5-yl)methyl)benzoate]
< 5 µM | < 5 µM | Cc1c(-c2ccnc(N)n2)sc2ccc(Cc3cccc(C(=O)Nc4ccc(OCCN5CCCCC5)cc4)c3)cc12 [Example 44, 3-((2-(2-Aminopyrimidin-4-yl)-3-methylbenzo[b]thiophen-5-yl)methyl)-N-(4-(2-(piperidin-1-yl)ethoxy)phenyl)benzamide]
< 5 µM | < 5 µM | Cc1c(-c2ccnc(N)n2)sc2ccc(Cc3cccc(C(=O)Nc4ccc(N5CCOCC5)cc4)c3)cc12 [Example 45, 3-((2-(2-Aminopyrimidin-4-yl)-3-methylbenzo[b]thiophen-5-yl)methyl)-N-(4-morpholinophenyl)benzamide]
< 5 µM | < 5 µM | COc1ccc(NC(=O)c2cccc(Cc3ccc4sc(-c5ccnc(N)n5)c(C)c4c3)c2)cc1 [Example 46, 3-((2-(2-Aminopyrimidin-4-yl)-3-methylbenzo[b]thiophen-5-yl)methyl)-N-(4-methoxyphenyl)benzamide]

The remaining lines, values behind:

Compound | IC50 [1] | IC50 [2]
CCc1c(-c2ccnc(N)n2)sc2ccc(Cl)cc12 [Example 16, 4-(5-Chloro-3-ethylbenzo[b]thiophen-2-yl)pyrimidin-2-amine] | < 5 µM | < 5 µM
Nc1nccc(-c2sc3ccc(Cl)cc3c2-c2ccccc2)n1 [Example 17, 4-(5-Chloro-3-phenylbenzo[b]thiophen-2-yl)pyrimidin-2-amine] | > 5 µM | > 5 µM
Cc1c(-c2ccnc(N)n2)sc2cnccc12 [Example 18, 4-(3-Methylthieno[2,3-c]pyridin-2-yl)pyrimidin-2-amine] | < 5 µM | < 5 µM
Cc1c(-c2ccnc(N)n2)sc2ccc(C(=O)N3CCC(NC(=O)OC(C)(C)C)C3)cc12 (stereo not drawn) [Example 22, tert-Butyl 1-(2-(2-aminopyrimidin-4-yl)-3-methylbenzo[b]thiophene-5-carbonyl)pyrrolidin-3-ylcarbamate] | > 5 µM | > 5 µM
Cc1c(-c2ccnc(N)n2)sc2ccc(Cc3ccccc3)cc12 [Example 24, 4-(5-Benzyl-3-methylbenzo[b]thiophen-2-yl)pyrimidin-2-amine] | < 5 µM | < 5 µM
Cc1c(-c2ccnc(N)n2)sc2ccc(Cc3cccc(OCCN(C)C)c3)cc12 [Example 30, 4-(5-(3-(2-(Dimethylamino)ethoxy)benzyl)-3-methylbenzo[b]thiophen-2-yl)pyrimidin-2-amine] | < 5 µM | < 5 µM
COc1cccc(C(N)c2ccc3sc(-c4ccnc(N)n4)c(C)c3c2)c1 (stereo not drawn) [Example 32, 4-(5-(Amino(3-methoxyphenyl)methyl)-3-methylbenzo[b]thiophen-2-yl)pyrimidin-2-amine] | < 5 µM | < 5 µM
Cc1c(-c2ccnc(N)n2)sc2ccc(CN)cc12 [Example 33, 4-(5-(Aminomethyl)-3-methylbenzo[b]thiophen-2-yl)pyrimidin-2-amine] | < 5 µM | < 5 µM
Cc1c(-c2ccnc(N)n2)sc2ccc(CNC(=O)c3cccs3)cc12 [Example 34, N-((2-(2-Aminopyrimidin-4-yl)-3-methylbenzo[b]thiophen-5-yl)methyl)thiophene-2-carboxamide] | < 5 µM | < 5 µM
COc1ccccc1Cc1ccc2sc(-c3ccnc(N)n3)c(C)c2c1 [Example 37, 4-(5-(2-Methoxybenzyl)-3-methylbenzo[b]thiophen-2-yl)pyrimidin-2-amine] | > 5 µM | > 5 µM
COc1ccc(OC)c(Cc2ccc3sc(-c4ccnc(N)n4)c(C)c3c2)c1 [Example 38, 4-(5-(2,5-Dimethoxybenzyl)-3-methylbenzo[b]thiophen-2-yl)pyrimidin-2-amine] | > 5 µM | > 5 µM
Cc1c(-c2ccnc(N)n2)sc2ccc(Cc3cccc(C(F)(F)F)c3)cc12 [Example 39, 4-(3-Methyl-5-(3-(trifluoromethyl)benzyl)benzo[b]thiophen-2-yl)pyrimidin-2-amine] | > 5 µM | > 5 µM
Cc1c(-c2ccnc(N)n2)sc2ccc(Cc3cccc(C#N)c3)cc12 [Example 40, 3-((2-(2-Aminopyrimidin-4-yl)-3-methylbenzo[b]thiophen-5-yl)methyl)benzonitrile] | < 5 µM | < 5 µM
CCN(CC)CCNC(=O)c1cccc(Cc2ccc3sc(-c4ccnc(N)n4)c(C)c3c2)c1 [Example 47, 3-((2-(2-Aminopyrimidin-4-yl)-3-methylbenzo[b]thiophen-5-yl)methyl)-N-(2-(diethylamino)ethyl)benzamide] | < 5 µM | < 5 µM
